Measurements taken from patent US20220389019A1, “TrkB POSITIVE ALLOSTERIC MODULATORS” (Université de Strasbourg, priority 2019, published 2022).

What was measured:
TrkB [1] = experiment: TrkB phosphorylation assay: potentiation of BDNF-induced TrkB phosphorylation in cortical neurons; format: cell-based; conditions: potentation at a PAM concentration of 10 nM of 0.4 nM BDNF-induced TrkB phosphorylation in cortical neurons
Description: It is meant by “positive allosteric modulator” (PAM), also known as allosteric enhancer or potentiator, a compound that induces an amplification of the effect of receptor's response to the primary ligand without directly activating the receptor. Within this invention, PAM TrkB activity is related to the potentation of BDNF effects on the functional activity of the TrkB receptor, measured in vitro or in vivo by mean of a specific TrkB receptor phosphorylation assay.
In Vitro Activity of LIT-TB Derivatives in a TrkB Phosphorylation Assay

PC12-TrkB cells = conditions: BDNF, 48 hours
Procedure: (§1) Nnr5 PC12-TrkA and nnr5 PC12-TrkB cells are NGF-nonresponding mutant PC12 cells stably transfected with TrkA and TrkB, respectively. Activation of TrkA and TrkB was assessed in nnr5 PC12-TrkB or -TrkA cells by quantifying the level of phospho-Trk at Tyrosine 706 (Y706) after addition of BDNF (1 nM) or NGF (2 nM), respectively, for 15 min in presence or absence of TB001 at various concentrations (0.1, 10 and […]), as previously done. Activation of downstream signaling pathway was assessed by quantifying phospho-ERK in the same cells. Neurite outgrowth was determined by counting the number the number of cells bearing neurites longer than 2 cells in diameter, 48 hours after initial treatment, as described earlier.
(§2) Selectivity of LIT-TB001 toward signaling activation and biological function was tested in PC12-TrkB or PC12-TrkA cells, in presence of BDNF (TrkB) or NGF (TrkA). Key experiments were recapitulated in either TrkA or TrkB-expressing cells to test for TB selectivity: Trk phosphorylation, ERK phosphorylation and neurite outgrowth (FIG. 1).

TrkA = TrkA (Homo sapiens, UniProt P04629); conditions: PC12-TrkA cells, presence or absence of NGF (2 nM)
Sequence of TrkA (P04629 33-796, species assumed): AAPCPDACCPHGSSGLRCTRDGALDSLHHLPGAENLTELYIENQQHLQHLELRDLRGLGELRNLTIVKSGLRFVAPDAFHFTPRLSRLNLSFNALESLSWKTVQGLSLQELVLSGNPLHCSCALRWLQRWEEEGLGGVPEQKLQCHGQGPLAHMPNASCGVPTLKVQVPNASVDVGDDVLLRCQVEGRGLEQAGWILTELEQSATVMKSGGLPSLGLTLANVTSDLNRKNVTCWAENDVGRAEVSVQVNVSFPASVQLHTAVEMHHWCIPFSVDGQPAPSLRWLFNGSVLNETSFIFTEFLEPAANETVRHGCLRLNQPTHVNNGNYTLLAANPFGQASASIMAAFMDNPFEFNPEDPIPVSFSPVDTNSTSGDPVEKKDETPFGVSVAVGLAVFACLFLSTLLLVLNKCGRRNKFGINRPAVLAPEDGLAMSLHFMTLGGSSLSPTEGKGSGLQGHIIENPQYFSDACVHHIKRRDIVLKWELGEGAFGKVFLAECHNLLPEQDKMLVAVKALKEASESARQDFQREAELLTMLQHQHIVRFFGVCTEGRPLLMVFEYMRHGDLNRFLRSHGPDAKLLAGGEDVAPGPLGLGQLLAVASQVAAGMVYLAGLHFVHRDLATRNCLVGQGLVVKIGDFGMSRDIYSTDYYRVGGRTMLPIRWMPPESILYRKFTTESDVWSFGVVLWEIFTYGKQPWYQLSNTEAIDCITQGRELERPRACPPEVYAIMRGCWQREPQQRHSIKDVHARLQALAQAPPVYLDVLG
Procedure: as §1, §2

TrkB [2] = biological target: TrkB (Homo sapiens, UniProt Q16620); conditions: PC12-TrkB cells, BDNF 1 nM
Sequence of TrkB (Homo sapiens, UniProt Q16620) (Q16620 32-822, species assumed): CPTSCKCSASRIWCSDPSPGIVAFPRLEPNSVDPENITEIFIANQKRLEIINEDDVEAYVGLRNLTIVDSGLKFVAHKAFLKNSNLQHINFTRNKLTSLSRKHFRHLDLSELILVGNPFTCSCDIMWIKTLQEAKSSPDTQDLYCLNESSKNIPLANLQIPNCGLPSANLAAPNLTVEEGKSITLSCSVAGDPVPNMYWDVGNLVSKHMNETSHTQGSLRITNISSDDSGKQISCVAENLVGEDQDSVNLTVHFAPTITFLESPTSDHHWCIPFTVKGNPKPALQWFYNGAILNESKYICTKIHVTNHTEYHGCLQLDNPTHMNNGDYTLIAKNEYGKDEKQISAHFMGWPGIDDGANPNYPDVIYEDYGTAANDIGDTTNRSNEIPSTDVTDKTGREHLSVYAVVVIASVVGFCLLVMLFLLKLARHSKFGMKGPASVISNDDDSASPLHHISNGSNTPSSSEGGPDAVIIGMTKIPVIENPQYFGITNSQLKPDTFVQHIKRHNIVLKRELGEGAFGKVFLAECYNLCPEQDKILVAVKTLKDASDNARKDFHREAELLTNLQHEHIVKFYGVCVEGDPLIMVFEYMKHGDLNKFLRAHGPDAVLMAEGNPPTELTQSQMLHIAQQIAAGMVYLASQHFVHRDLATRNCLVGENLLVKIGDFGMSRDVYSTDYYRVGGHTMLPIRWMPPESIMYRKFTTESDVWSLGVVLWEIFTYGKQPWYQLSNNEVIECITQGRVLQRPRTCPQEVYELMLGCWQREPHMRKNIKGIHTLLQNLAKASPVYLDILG
Procedure: as §1, §2

45 kinases = experiment: Kinome profile (ExpresS Diversity Kinase Panel, TR-FRET LANCE); format: biochemical; conditions: 10 μM
Procedure: FIG. 2 represents the […] inhibition of the catalytic activity of 45 kinases (ExpresS Diversity Kinase Panel, Eurofins Discovey, item # P10) by LIT-TB001 at a concentration of 10 μM. For each kinase, the effect of the compound on the ATP-induced kinase-mediated substrate phosphorylation is measured by the TR-FRET LANCE technology.
A kinome profile was next performed to test LIT-TB001 selectivity toward other kinases.

TrkB [3] = biological target: TrkB (Mus musculus, UniProt P15209); conditions: C57BL/6 male mice, 0.5 and 1 mg/kg i.p., 1 h, cortex and hippocampus, western blot
Sequence of TrkB (Mus musculus, UniProt P15209) (P15209 32-821): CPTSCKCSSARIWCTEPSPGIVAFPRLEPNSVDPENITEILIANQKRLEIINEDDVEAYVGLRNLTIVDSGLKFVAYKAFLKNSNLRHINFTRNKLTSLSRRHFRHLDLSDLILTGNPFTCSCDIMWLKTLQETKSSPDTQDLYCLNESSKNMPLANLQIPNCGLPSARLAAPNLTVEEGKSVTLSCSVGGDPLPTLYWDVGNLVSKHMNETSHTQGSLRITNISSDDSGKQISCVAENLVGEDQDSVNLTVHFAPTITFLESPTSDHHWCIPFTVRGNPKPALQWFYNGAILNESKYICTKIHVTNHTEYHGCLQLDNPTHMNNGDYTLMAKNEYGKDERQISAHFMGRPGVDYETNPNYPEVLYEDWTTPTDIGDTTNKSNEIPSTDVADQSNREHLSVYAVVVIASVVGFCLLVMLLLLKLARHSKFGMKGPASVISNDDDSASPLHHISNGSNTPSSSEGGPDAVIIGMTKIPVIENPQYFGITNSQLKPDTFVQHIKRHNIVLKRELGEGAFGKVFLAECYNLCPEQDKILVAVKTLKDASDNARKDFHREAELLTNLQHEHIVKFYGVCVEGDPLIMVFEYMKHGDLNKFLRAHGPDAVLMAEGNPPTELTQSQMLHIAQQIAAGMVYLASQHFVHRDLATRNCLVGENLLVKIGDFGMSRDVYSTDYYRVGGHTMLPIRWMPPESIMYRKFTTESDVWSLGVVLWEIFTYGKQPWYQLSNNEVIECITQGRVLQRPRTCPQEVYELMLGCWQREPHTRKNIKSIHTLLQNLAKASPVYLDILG
Procedure: After 1 hour (unless indicated otherwise), mice were decapitated, blood was collected and brains were rapidly removed on ice. […] The Anti-TrkB antibody is used to quantify the total amount of TrkB. Anti-tubulin is used as a loading control. […] Phosphorylated levels of TrkB are calculated as a ratio between phospho and total TrkB bands in each region
A volume of 10 μl/g body weight was injected. After 1 hour (unless indicated otherwise), mice were decapitated, blood was collected and brains were rapidly removed on ice. Cortex and hippocampus were subsequently dissected and tissues were rapidly washed in ice-cold PBS and transferred into ice-cold solubilization buffer before homogenization at 4° C. Samples were centrifuged at 10,000×g for 10 min at 4° C. Protein concentrations were determined, equal amounts of proteins were loaded, and western blots were performed as described above.
C57Bl6 male mice received an i.p injection of 0.5 and 1 mg/kg for 1 hour before their brain was carefully removed and their cortex and hippocampus were sub-dissected. […] The level of TrkB phosphorylation at Tyrosine 816 was analyzed by western blot (FIG. 3).

Row | Compound | PAM TrkB activity (TrkB [1]) | other results
1 | CN1CCN(c2ccc3nnc(CCC(=O)NC4CCN(Cc5ccccc5)CC4)n3n2)CC1 [LIT-TB001, N-(1-benzylpiperidin-4-yl)-3-[6-(4-methylpiperazin-1-yl)-[1,2,4]triazolo[4,3-b]pyridazin-3-yl] propanamide] | +++ (+++: >35%) | neurite outgrowth (PC12-TrkB cells): potentiates BDNF-; phosphorylation of ERK (TrkA): did not induce phosphorylation of ERK or TrkA; phosphorylation of TrkA (TrkA): did not induce phosphorylation of ERK or TrkA; phosphorylation of ERK (TrkB [2]): induced only in the presence of BDNF; phosphorylation of TrkB (TrkB [2]; 15 min): induced only in the presence of BDNF; effect on catalytic activity of 45 kinases (among them TrkA) (45 kinases): does not activate neither block the catalytic activity of the tested kinases; TrkB activation (phospho-TrkB/total TrkB) in the brain (TrkB [3]): efficiently increases TrkB activation in the brain
2 | CN1CCN(c2ccc3nnc(CCC(=O)NC4CCNCC4)n3n2)CC1 [LIT-TB021, 3-(6-(4-methylpiperazin-1-yl)-[1,2,4]triazolo[4,3-b]pyridazin-3-yl)-N-(piperidin-4-yl)propanamide] | + (+: <20%) | –
3 | CN1CCN(c2ccc3nnc(CCC(=O)NC4CCN(Cc5ccccc5F)CC4)n3n2)CC1 [LIT-TB022, N-{1-[(2-fluorophenyl)methyl]piperidin-4-yl}-3-[6-(4-methylpiperazin-1-yl)-[1,2,4]triazolo[4,3-b]pyridazin-3-yl]propanamide] | +++ (+++: >35%) | –
4 | CC(c1ccccc1)N1CCC(NC(=O)CCc2nnc3ccc(N4CCN(C)CC4)nn23)CC1 (stereo not drawn) [LIT-TB023, 3-[6-(4-methylpiperazin-1-yl)-[1,2,4]triazolo[4,3-b]pyridazin-3-yl]-N-[1-(1-phenylethyl)piperidin-4-yl]propanamide] | + (+: <20%) | –
5 | Cc1ccccc1CN1CCC(NC(=O)CCc2nnc3ccc(N4CCN(C)CC4)nn23)CC1 [LIT-TB024, N-{1-[(2-methylphenyl)methyl]piperidin-4-yl}-3-[6-(4-methylpiperazin-1-yl)-[1,2,4]triazolo[4,3-b]pyridazin-3-yl]propanamide] | +++ (+++: >35%) | –
6 | CN1CCN(c2ccc3nnc(CCC(=O)NC4CCN(Cc5ccncc5)CC4)n3n2)CC1 [LIT-TB025, 3-[6-(4-methylpiperazin-1-yl)-[1,2,4]triazolo[4,3-b]pyridazin-3-yl]-N-[1-(pyridin-4-ylmethyl)piperidin-4-yl]propanamide] | + (+: <20%) | –
7 | CN1CCN(c2ccc3nnc(CCC(=O)NC4CCN(Cc5ccc(Cl)c(Cl)c5)CC4)n3n2)CC1 [LIT-TB026, N-{1-[(3,4-dichlorophenyl)methyl]piperidin-4-yl}-3-[6-(4-methylpiperazin-1-yl)-[1,2,4]triazolo[4,3-b]pyridazin-3-yl]propanamide] | + (+: <20%) | –
8 | CN1CCN(c2ccc3nnc(CCC(=O)NC4CCN(C(=O)c5ccccc5)CC4)n3n2)CC1.Cl [LIT-TB027, N-(1-benzoylpiperidin-4-yl)-3-[6-(4-methylpiperazin-1-yl)-[1,2,4]triazolo[4,3-b]pyridazin-3-yl]propanamide hydrochloride] | + (+: <20%) | –
9 | CN1CCN(c2ccc3nnc(CCC(=O)NC4CCN(Cc5ccc(Cl)cc5)CC4)n3n2)CC1 [LIT-TB028, N-{1-[(4-chlorophenyl)methyl]piperidin-4-yl}-3-[6-(4-methylpiperazin-1-yl)-[1,2,4]triazolo[4,3-b]pyridazin-3-yl]propanamide] | + (+: <20%) | –
10 | CN1CCN(c2ccc3nnc(CCC(=O)NC4CCN(CC5CCCCC5)CC4)n3n2)CC1 [LIT-TB031, N-[1-(cyclohexylmethyl)piperidin-4-yl]-3-[6-(4-methylpiperazin-1-yl)-[1,2,4]triazolo[4,3-b]pyridazin-3-yl]propanamide] | +++ (+++: >35%) | –
11 | Cc1[nH]cnc1CN1CCC(NC(=O)CCc2nnc3ccc(N4CCN(C)CC4)nn23)CC1 [LIT-TB032, N-{1-[(5-methyl-1H-imidazol-4-yl)methyl]piperidin-4-yl}-3-[6-(4-methylpiperazin-1-yl)-[1,2,4]triazolo [4,3-b]pyridazin-3-yl]propanamide] | +++ (+++: >35%) | –
12 | CN1CCN(c2ccc3nnc(CCC(=O)NC4CCN(Cc5ccccc5)C(=O)C4)n3n2)CC1 (stereo not drawn) [LIT-TB033, N-(1-benzyl-2-oxopiperidin-4-yl)-3-[6-(4-methylpiperazin-1-yl)-[1,2,4]triazolo[4,3-b]pyridazin-3-yl]propanamide] | + (+: <20%) | –
13 | CN1CCN(c2ccc3nnc(CCC(=O)NC4CCC(Cc5ccccc5)CC4)n3n2)CC1 (stereo not drawn) [LIT-TB034, N-(4-benzylcyclohexyl)-3-[6-(4-methylpiperazin-1-yl)-[1,2,4]triazolo[4,3-b]pyridazin-3-yl]propanamide] | + (+: <20%) | –
14 | CN1CCN(c2ccc3nnc(CCC(=O)NC4CCN(c5ccccc5)CC4)n3n2)CC1 [LIT-TB035, 3-[6-(4-methylpiperazin-1-yl)-[1,2,4]triazolo[4,3-b]pyridazin-3-yl]-N-(1-phenylpiperidin-4-yl)propanamide] | ++ (++: 20-35%) | –
15 | CN1CCN(c2ccc3nnc(CCC(=O)NC4CCN(Cc5ccc(F)cc5F)CC4)n3n2)CC1 [LIT-TB040, N-{1-[(2,4-difluorophenyl)methyl]piperidin-4-yl}-3-[6-(4-methylpiperazin-1-yl)-[1,2,4]triazolo[4,3-b]pyridazin-3-yl]propanamide] | ++ (++: 20-35%) | –
16 | Cc1cc(F)ccc1CN1CCC(NC(=O)CCc2nnc3ccc(N4CCN(C)CC4)nn23)CC1 [LIT-TB044, N-{1-[(4-fluoro-2-methylphenyl)methyl]piperidin-4-yl}-3-[6-(4-methylpiperazin-1-yl)-[1,2,4]triazolo[4,3-b]pyridazin-3-yl]propanamide] | ++ (++: 20-35%) | –
17 | COc1ccc(CN2CCC(NC(=O)CCc3nnc4ccc(N5CCN(C)CC5)nn34)CC2)c(C)c1.Cl.Cl [LIT-TB045, N-{1-[(4-methoxy-2-methylphenyl)methyl]piperidin-4-yl}-3-[6-(4-methylpiperazin-1-yl)-[1,2,4]triazolo[4,3-b]pyridazin-3-yl]propanamide dihydrochloride] | +++ (+++: >35%) | –
18 | COc1ccc(CN2CCC(NC(=O)CCc3nnc4ccc(N5CCN(C)CC5)nn34)CC2)c(F)c1.Cl.Cl [LIT-TB046, N-{1-[(2-fluoro-4-methoxyphenyl)methyl]piperidin-4-yl}-3-[6-(4-methylpiperazin-1-yl)-[1,2,4]triazolo[4,3-b]pyridazin-3-yl]propanamide dihydrochloride] | + (+: <20%) | –
19 | CN1CCN(c2ccc3nnc(CCC(=O)N[C@@H]4CCN(Cc5ccccc5)C[C@@H]4F)n3n2)CC1 [LIT-TB047, N-[(3S,4R)-1-benzyl-3-fluoropiperidin-4-yl]-3-[6-(4-methylpiperazin-1-yl)-[1,2,4]triazolo[4,3-b]pyridazin-3-yl]propanamide] | ++ (++: 20-35%) | –
20 | CN1CCN(c2ccc3nnc(CCC(=O)N[C@H]4CCN(Cc5ccccc5)C[C@@H]4F)n3n2)CC1 [LIT-TB048, N-[(3S,4S)-1-benzyl-3-fluoropiperidin-4-yl]-3-[6-(4-methylpiperazin-1-yl)-[1,2,4]triazolo[4,3-b]pyridazin-3-yl]propanamide] | +++ (+++: >35%) | –
21 | CN1CCN(c2ccc3nnc(CCC(=O)N[C@@H]4CCN(Cc5ccccc5)C[C@H]4F)n3n2)CC1 [LIT-TB049, N-[(3R,4R)-1-benzyl-3-fluoropiperidin-4-yl]-3-[6-(4-methylpiperazin-1-yl)-[1,2,4]triazolo[4,3-b]pyridazin-3-yl]propanamide] | +++ (+++: >35%) | –
22 | COc1ccc(CN2CC[C@H](NC(=O)CCc3nnc4ccc(N5CCN(C)CC5)nn34)[C@@H](F)C2)cc1 [LIT-TB052, N-[(3S,4S)-3-fluoro-1-[(4-methoxyphenyl)methyl]piperidin-4-yl]-3-[6-(4-methylpiperazin-1-yl)-[1,2,4]triazolo[4,3-b]pyridazin-3-yl]propanamide] | +++ (+++: >35%) | –
23 | COc1ccc(CN2CC[C@@H](NC(=O)CCc3nnc4ccc(N5CCN(C)CC5)nn34)[C@H](F)C2)cc1 [LIT-TB053, N-[(3R,4R)-3-fluoro-1-[(4-methoxyphenyl)methyl]piperidin-4-yl]-3-[6-(4-methylpiperazin-1-yl)-[1,2,4]triazolo[4,3-b]pyridazin-3-yl]propanamide] | ++ (++: 20-35%) | –
